# Results taken from US6340758B1, “Conformationally semi-constrained quinoxaline 2,3-diones as neuroprotective agents” (Warner-Lambert Company, priority 1997, dated 2002).
smiles,measurement,value
"Cc1c([N+](=O)[O-])cc2[nH]c(=O)c(=O)[nH]c2c1-c1nnc(N)o1 [Example 1, 5-(5-Amino-[1,3,4]oxadiazol-2-yl)-6-methyl-7-nitro-1,4-dihydro-quinoxaline-2,3-dione]",melting point,205 to 206 °C
